Experimental findings from a melting point compilation (Tetko et al.; mined from patent text by program, amines drawn as free bases though some values may be those of a salt) are described below.

For orientation: melting point means the temperature of the solid-liquid transition. In turn, `COc1ccc(COc2ccc3c(c2)C(c2ccc(C(C)C)cc2)C(C)(C)O3)cc1` (stereo not drawn) displayed a melting point of 124 to 126 °C.
With `CCCCC(CC)COc1ccc2c(-c3ccc(CBr)cc3)c3cc(OCC(CC)CCCC)ccc3c(-c3ccc(CBr)cc3)c2c1` (stereo not drawn), the melting point lay in the range of 105 to 107 °C.
As for `O=C(NCC1(O)CCCCCC1)c1cc(-c2cccnc2N2CCC(C(=O)O)CC2)ccc1Cl`, the figure is 117 to 119 °C.
As for `CCCCCCCCCCCCCCCCCC(=O)NC#N`, the figure is 74 to 75 °C; as for `CC(C)(C)c1cccc(Br)c1Oc1ccc(O)nn1`, 255 to 257 °C; as for `Nc1nc2ccc(CCN3CCC(C(=O)c4ccccc4)CC3)cc2s1`, 186 to 188 °C.
The result for `O=C1CCCN1C(=O)Oc1ccccc1[N+](=O)[O-]` reads 135 to 136 °C; that for `Cc1c(C)c2c(c(C)c1N)CC(C)(CN1CCN(C(=O)CCC(c3ccccc3)c3ccccc3)CC1)O2` (stereo not drawn), 135 to 138 °C.
With `N#Cc1ccc(C(=O)Nc2ccc(OCCN3CCOCC3)c3ccccc23)cc1`, the melting point is 213 to 214 °C.
As for `CCOC(=O)c1cc2c3n(ccc-2n1)C([N+](=O)[O-])C(C)=N3` (stereo not drawn), the figure is 300 to 302 °C; as for `CC=Cc1nc2cc3c(cc2[nH]1)NC(=O)C3(C)C`, 252 to 254 °C; as for `NC(=NCC(F)(F)F)Nc1ccnc(SCCCNC=O)n1`, 165 to 166 °C.
As for `Cc1c(C(=O)N=C(N)N)cc(S(C)(=O)=O)c(-n2ccnc2)c1C`, the figure is 249 °C; as for `Cc1nc2ccc(OC3SCC(O)C(O)C3O)cc2s1` (stereo not drawn), 184 °C; as for `COc1cnc2sc(S(=O)(=O)Cc3ccccc3)nn2c1=O`, 204 to 206 °C.
`O=C1c2ccccc2C(=O)c2sc(-c3ccco3)nc21`: the melting point is more than 260 °C.
In turn, `CCCC=Cc1c(C(C)C)nc(C(C)C)c(C(=O)OCC)c1-c1ccc(-c2ccccc2)cc1` registered a melting point of 104 to 106 °C.
In turn, `O=S1(=O)NC(C2CCCCC2)=Nc2cccc(CO)c21` came in with a melting point of 220 to 223 °C.
`O=C(c1ccccc1)c1ccc(-c2ccc(-c3ccc(Cl)cc3)s2)s1` registered a melting point of 165 to 175 °C.
The result for `CCCCCCCCCCCCSC1c2cccc(O)c2C(=O)c2c(O)cccc21` reads 76 °C; that for `Clc1ccc2c(c1)[C@@H](c1ccccc1)[C@H]1CN(Cc3ccccc3)C[C@H]1C2` (racemic), 115 to 117 °C.
As for `O=C(O)COc1cccc2c1CCCC2CCOC(=O)N(c1ccccc1)c1ccccc1` (stereo not drawn), the figure is 145 °C; as for `O=C(CCC1c2ccccc2-c2ccccc21)N[C@@H](Cc1ccccc1)C(=O)O`, 194 to 195 °C.
Turning to `CCCC(=O)C1=C(O)CC(c2c(C)c(C)c(C)c3ccoc23)CC1=O` (stereo not drawn), the melting point turned out to be 130 °C.
`O=C(NCC1CC2C=CC1C2)NS(=O)(=O)C=Cc1ccccc1` (stereo not drawn) returned a melting point of 161 to 164 °C.
`CCNC(=O)c1c(OC(C)(C)C)ccc2ccccc12` displayed a melting point of 126 to 127 °C.
As for `CCCCC1(CCCC)CS(=O)(=O)c2ccc(N(C)C)cc2[C@@H](c2ccc(OCCCCCSc3nnnn3CC(=O)O)cc2)[C@H]1O`, the figure is 119 to 123 °C; as for `CCc1nc(C)ccc1OC1SCC(O)C(O)C1O` (stereo not drawn), 172 to 174 °C; as for `CC(Cl)(Cl)C(NC(=O)c1cc(Cl)cc(Cl)c1)NC(=NC#N)Nc1ccc(Cl)nc1` (stereo not drawn), 138 to 140 °C.
The result for `COC(=O)C(C)(C)OCC#Cc1cc(Cl)ccc1NS(=O)(=O)c1ccc(OC)cc1` reads 98 to 100 °C.
The result for `CC(C)(C)c1cc(-c2nn(CCCCl)c3ncccc23)cc(C(C)(C)C)c1O` reads 107 to 109 °C.
Molecule `O=[N+]([O-])c1cccc(S(=O)(=O)NCCc2ccncc2)c1` came in with a melting point of 138 °C.
As for `CC(C(O)c1ccc2nc(N)sc2c1)N1CCC(Cc2ccccc2)CC1` (stereo not drawn), the figure is 197 to 200 °C.
`O=[N+]([O-])c1cc(OCc2ccccc2)ccc1CCO` showed a melting point of 48 to 52 °C.
Take `COc1ccc2c(c1)CC[C@@H](O)[C@@H]2n1nc(-c2c(-c3ccccc3)nn3ccccc23)ccc1=O` (relative stereo): the melting point lay in the range of 146 to 150 °C.
The result for `CC(C)N1CCN(Cc2ccc(-c3ccc4c(Nc5ccc(Sc6nccn6C)c(Cl)c5)c(C#N)cnc4c3)cc2)CC1` reads 193 to 195 °C; that for `Cc1cccc(C)c1NCCCC(=O)N(C(=O)c1ccc(Cl)cc1)[C@@H](Cc1ccccc1)C(=O)O`, 153 to 155 °C.
In the case of `CC(C)c1nn(-c2ccc(C(F)(F)F)cn2)cc1CCCCOc1cccc(OC(C)(C)C(=O)O)c1`, the melting point fell in the range of 81 to 82 °C.
The molecule `O=C(O)COc1cc(C(=O)O)nc2ccc(Cl)cc12` gave a melting point of 260 °C.
As for `COC(=O)c1ccc(CN(C(C)C)S(=O)(=O)c2ccc(Cl)cc2)cc1`, the figure is 110 to 112 °C; as for `O=C(CCCO)c1cccnc1`, 36 to 37 °C; as for `CN1CC(c2ccccc2)c2ccccc2C(c2ccccc2)C1(C)C` (stereo not drawn), 137 to 138 °C.
The result for `O=C1NC(=O)C(F)(c2ccccc2)CO1` (stereo not drawn) reads 115 to 117 °C; that for `CC(C)Oc1ccc(/C=C/C(=O)O)c(Oc2ncc(C(F)(F)F)cc2Cl)c1`, 138 to 140 °C; that for `Nc1ccc(NC(=O)Nn2cnc3ccccc3c2=O)cc1`, more than 305 °C.
Consider `CSc1ccc(-n2cnc3ccc(-c4nnc(C5CC5)o4)cc32)cc1`, for which the melting point was in the range of 198 to 199 °C.
With `NC(=O)c1ccnc(-c2ccc(Oc3ccc(F)cc3)cc2)n1`, the melting point fell in the range of 195 to 197 °C.
`COc1cc(OC(C)(C)C(=O)O)c(C=O)cc1-c1cccs1` yielded a melting point of 187 to 188 °C.
`CCCc1c(CSc2ncccc2O)ccc(C(C)=O)c1O` registered a melting point of 126 °C.
As for `Cc1cc(-c2c(F)cc3c(=O)c(Cc4ccc(O)cc4)cn(C4CC4)c3c2F)cc(C)n1`, the figure is 258 to 259 °C; as for `CC(C=CC=C(C)c1cc(C(C)(C)C)cc(C(C)(C)C)c1)=CC(=O)O`, 196 to 198 °C; as for `Cc1ccc(C)c2c1C(=O)N(c1ccc(F)cc1F)C2=O`, 212 °C.
As for `COc1ccc(CN(Cc2ccc(OC)cc2)S(=O)(=O)c2ccc(N(CCS(C)(=O)=O)Cc3ccc(C)cc3)cc2)cc1`, the figure is 85.7 to 86.6 °C.
As for `CC(C)(C)OC(=O)Cc1n[nH]c(=O)c2ccccc12`, the figure is 164 to 166 °C.
`CC(C)COC(=O)CCC12CCC(=O)N1C(=O)CC2`: the melting point is 102 to 104 °C.
In the case of `COC(=O)c1ccccc1S(=O)(=O)NC(=O)Nc1nc(C)cc(COC(C)=O)n1`, the melting point is 145 to 150 °C.
`CC(CNC(=O)C=CC=Cc1ccccc1)C(=O)NO` (stereo not drawn) displayed a melting point of 178 to 179 °C.
As for `CCc1cn(C2CC(O)(C(C)=O)C(CO)O2)c(=O)[nH]c1=O` (stereo not drawn), the figure is 150 °C.
With `COc1ccccc1N1CCN(CC(O)COc2ccccc2C=C=O)CC1` (stereo not drawn), the melting point fell in the range of 116 to 118 °C.
As for `CCOC(=O)c1nnn(O)n1`, the figure is 75 to 78 °C.
For `CC1(C)C(=O)NC(=O)c2cc(NC(N)=O)ccc21`, the melting point lay within 260 to 264 °C.
With `COc1ccc([N+](=O)[O-])c2[nH]ccc(=O)c12`, the melting point lay within 195 to 200 °C.
`Cc1nc(C(Cl)(Cl)Cl)nc(OC(=O)C(Cl)(Cl)Cl)c1Cl` yielded a melting point of 92 °C.
In the case of `Cc1cc(C#N)cc(C(=O)Nc2ccnc(Cl)c2)n1`, the melting point worked out at 238 °C.
As for `CC(=NO)c1ccc(C2=CCCCC2)cc1`, the figure is 154 to 156 °C; as for `COc1cc(Nc2c(C#N)cnc3cc4cc(OC)c(OCCN5CCOCC5)cc4cc23)c(Cl)cc1F`, 204 to 214 °C; as for `CCCc1ccc(Oc2c(-c3ccc(S(C)(=O)=O)cc3)cnn(CC(F)(F)F)c2=O)cc1`, 152 to 153 °C.
`COc1cccc2c(C)c3n(c(=O)c12)CCCS3(=O)=O` showed a melting point of 198 to 199 °C.
As for `CCc1ccc(-c2ccc(C(C)=S)cc2)cc1`, the figure is 84 to 86 °C; as for `O=C(O)C1(c2cccs2)CC1`, 116 to 118 °C.
Take `COC(=O)CSc1ncnc(N2CCc3ccccc3CC2)c1[N+](=O)[O-]`: the melting point is 113 to 115 °C.
The result for `Oc1ccc(-c2cc3ccccc3cn2)cc1` reads 218 to 219 °C; that for `O=C(CCCCCNC1(c2ccccc2Cl)C(=O)Nc2ccc(Cl)cc21)OCc1ccccc1` (stereo not drawn), 98 to 99 °C; that for `CN1CCC(C(=O)Nc2ccc(CN(C)C3CCOCC3)cc2)=Cc2cc(Br)ccc21`, 62 to 64 °C.
The result for `Cc1cc(C)c2c(c1)C=C(/C=C/C=O)CO2` reads 76 to 78 °C; that for `CCCCC(Br)C(=O)c1cc(NC(C)=O)ccc1O` (stereo not drawn), 137 to 138 °C; that for `COCCOc1ccc(OCC(O)CNCCNC(=O)N2CCOCC2)cc1` (stereo not drawn), 69 °C.
As for `CCCCOc1ccc(-c2cnc(Cl)nc2)cn1`, the figure is 117 °C.
The molecule `CC(C)(C)C(=O)c1cncnc1` came in with a melting point of 64 to 66 °C.
The result for `CC(C)c1cccc(CCC(O)CCCC2CCCCC2)c1NC(=O)CC1c2ccccc2Oc2ccccc21` (stereo not drawn) reads 142 to 143 °C; that for `CCOC(=NC(=O)c1ccc(Cl)cc1Cl)N1Cc2ccccc2-c2ccccc2C1`, 158 to 159 °C; that for `C=CCn1c(COCc2ccc(OC)cc2)nc(C(C)C)c1Sc1cc(Cl)cc(Cl)c1`, 100 to 102 °C.
The result for `CC(=O)SCC(Cc1ccccc1)C(=O)Nc1ccc(C(=O)O)c(Cl)c1` (stereo not drawn) reads 145 to 148 °C.
The result for `CCOc1cc2nc(CN(C)C)nc(Nc3cccc(-c4csc(C)n4)c3)c2cc1OCC` reads 170 to 172 °C; that for `Cc1ccc(-n2c3ccccc3c3ccccc32)cc1`, 104 to 106 °C; that for `CC(=O)NC1=C(C#N)C(c2cccc([N+](=O)[O-])c2)=C2C=Cc3ccccc3C2O1` (stereo not drawn), 234 to 236 °C.
Molecule `O=C(O)CN1C(=O)C(=Cc2ccccc2C(=O)O)SC1=S` yielded a melting point of more than 300 °C.
As for `CC(C(N)=O)c1ccc2c(c1)CCc1cccnc1O2` (stereo not drawn), the figure is 162 to 165 °C.
